Assay results taken from PMC9147192, “Small Molecule Arranged Thermal Proximity Coaggregation (smarTPCA)—A Novel Approach to Characterize Protein–Protein Interactions in Living Cells by Similar Isothermal Dose–Responses” (International Journal of Molecular Sciences, 2022).
pEC50: −log10 of the molar value. Several values for one entry are separate records, joined by “and”; a condition that tells them apart may be missing. Identical values can stand only once.

Tests used:
MAPK8 = test system: MAPK8; parameters: method as in PMID 23398362; details: cited from earlier work
MAPKAPK3 = MAPKAPK3 (Homo sapiens, UniProt Q16644); assay: TPP-CCR in living HL-60 cells; details: […] °C, TMT-MS
MAPK14 [1] = target: T1, MAPK14 (Homo sapiens, UniProt Q16539); assay: CETSA in living HL-60 cells, immunoblot; format: cell-based
Protocol: First, we conducted CETSA experiments according to Jafari et al.. […] Subsequent SDS-PAGE and immunoblotting were performed according to optimized conditions allowing for parallel detection of MAPK14, MAPKAPK2, MAPKAPK3, and GSK-3α (Supplementary Figure S1).
(§1) HL-60 cells (ATCC No. CCL-240) were expanded to about […] in 80 mL cell culture medium (RPMI-1640 supplemented with 10% (v/v) FBS, 1% (v/v) penicillin-streptomycin and 1% (v/v) L-glutamine solution) and divided into four aliquots (20 mL each, 25 million cells per flask). […] The same volume of DMSO was added to the remaining aliquot serving as the vehicle (DMSO) control. After incubation (1 h, 37 °C, 5% CO2, in cell culture CO2 incubator), the cell suspensions were transferred into 50 mL conical tubes, cell number and viability were determined, and after centrifugation (300 relative centrifugal force (rcf), 3 min, room temperature (r.t.)), the supernatants were completely removed and discarded. The cells were washed using 20 mL Dulbecco’s phosphate-buffered saline (PBS), respectively, by resuspension and centrifugation (300 rcf, 3 min, r.t.). After the complete removal of the supernatants, the cells were transferred into pre-weighed 2 mL Eppendorf tubes using 0.5 mL PBS (r.t.), respectively, for resuspending. After centrifugation (300 rcf, 3 min, r.t.) and removing as much as possible of the supernatants, the cell wet weights were determined.
(§2) The suspensions were shortly centrifuged (1 s or less) using a benchtop centrifuge that was equipped with an inset for PCR tubes to release trapped air and to achieve an even liquid level without pelleting the cells. The 100 µL cell suspensions were then temperature treated by a 7 min pre-incubation at r.t., a 3 min incubation at the following different temperatures in the PCR cycler (DNA Engine Tetrad 2, lid temperature 70 °C, gradient block 1: 36–55 °C, gradient block 2: 48–67 °C), and a 3 min post-incubation at r.t. in a metal heating block for uniform heat dissipation.
(§3) The cells were lysed by four freeze/thaw cycles consisting of thawing the samples (in a heat block set to 25 °C and shaking at 1250 rpm) accompanied by mixing them several times by inversion and then shock freezing them again in liquid nitrogen. The resulting lysates were kept cold (on ice or 4 °C) from then on. After centrifugation (20,000 rcf, 30 min, 4 °C) to pellet the cell debris together with precipitated and aggregated proteins, the supernatants were recovered and, after determining the total protein concentration (Pierce 660 nm Protein Assay, BSA as standard), the resulting cell extracts containing the fraction of soluble, non-denatured proteins were shock frozen in liquid nitrogen and stored at −80 °C.
For each sample set comprising either ten temperature range samples or ten compound concentration range samples, the same volume of the cell extracts containing the fraction of soluble, non-denatured proteins was used for further analysis. This volume was determined using the two lowest temperature samples (36.5 and 41.2 °C) per temperature range sample set so that they contained an average of 5 µg total protein (e.g., 2.78 µL for all temperature range samples of a sample set whose two lowest temperature samples contain an average of 1.8 mg/mL protein). For the compound concentration range experiments, all samples of a set were used for averaging.

NUDT1 = NUDT1 (Homo sapiens, UniProt P36639); assay: TPP-CCR in living HL-60 cells
MAPK14 [2] = target: T1, MAPK14; assay: TPP-TR in living HL-60 cells; format: cell-based; details: 20 μM, single set (no replicates)
Protocol: as §1, §2, §3
For each sample set comprising ten temperature range samples, the same volume of the cell extracts containing the fraction of soluble, non-denatured proteins was used for further analysis. Volume calculation for 30 µg total protein was performed as described for SDS-PAGE and immunoblotting. The calculated volume was respectively transferred into 0.5 mL LoBind Eppendorf tubes and evaporated to dryness using vacuum centrifugation (SpeedVac concentrator, Eppendorf, Hamburg, Germany). The dried proteins were each reconstituted in 10 µL of SDS sample buffer (containing DTT) and incubated for 30 min at 50 °C with shaking (700 rpm). 1.111 µL 1 M iodoacetamide (IAA) was added to each sample (final 100 mM IAA), then the samples were mixed and incubated for 30 min at r.t. in the dark. Sample quality was controlled by SDS-PAGE/silver staining using 0.926 µL of each sample (2.5 µg on average for the two lowest temperature samples; 26-well 4–12% Bis-Tris polyacrylamide gels, Novex NuPAGE, Thermo Scientific; 15 min at 50 V, about 1.5 h at 200 V using the recommended MOPS running buffer).

T1 sequence (Q16539 whole entry): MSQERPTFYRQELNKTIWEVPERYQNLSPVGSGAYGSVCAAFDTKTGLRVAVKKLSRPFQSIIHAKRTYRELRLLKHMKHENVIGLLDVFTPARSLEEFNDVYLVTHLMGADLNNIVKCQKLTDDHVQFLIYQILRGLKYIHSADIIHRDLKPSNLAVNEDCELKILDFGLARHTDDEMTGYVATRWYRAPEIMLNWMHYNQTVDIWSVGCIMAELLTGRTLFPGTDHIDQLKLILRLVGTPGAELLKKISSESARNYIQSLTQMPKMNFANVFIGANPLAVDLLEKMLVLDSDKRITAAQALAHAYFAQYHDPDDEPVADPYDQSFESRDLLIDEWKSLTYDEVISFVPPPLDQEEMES
Chain of MAPKAPK3 (Q16644 whole entry): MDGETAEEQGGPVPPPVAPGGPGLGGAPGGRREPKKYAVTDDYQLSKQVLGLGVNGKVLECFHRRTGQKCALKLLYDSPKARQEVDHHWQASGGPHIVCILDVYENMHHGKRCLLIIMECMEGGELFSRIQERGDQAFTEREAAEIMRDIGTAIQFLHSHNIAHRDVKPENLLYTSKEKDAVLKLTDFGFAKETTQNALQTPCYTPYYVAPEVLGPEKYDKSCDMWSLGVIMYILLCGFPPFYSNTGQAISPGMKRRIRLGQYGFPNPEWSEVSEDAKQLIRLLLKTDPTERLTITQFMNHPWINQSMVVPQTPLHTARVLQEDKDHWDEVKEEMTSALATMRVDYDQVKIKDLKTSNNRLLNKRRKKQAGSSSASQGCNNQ
Chain of MAPKAPK3 (Q16539 2-360 partner limits assumed): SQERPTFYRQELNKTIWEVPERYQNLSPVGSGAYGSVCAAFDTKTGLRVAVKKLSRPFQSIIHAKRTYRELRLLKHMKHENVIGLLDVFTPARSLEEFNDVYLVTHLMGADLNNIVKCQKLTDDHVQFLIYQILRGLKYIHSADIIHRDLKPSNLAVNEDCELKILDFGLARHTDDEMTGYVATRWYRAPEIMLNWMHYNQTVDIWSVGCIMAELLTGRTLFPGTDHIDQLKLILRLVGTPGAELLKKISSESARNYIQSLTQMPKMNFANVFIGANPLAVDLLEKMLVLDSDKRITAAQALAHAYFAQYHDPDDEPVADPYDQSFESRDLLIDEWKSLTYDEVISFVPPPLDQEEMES

| Compound | activity against MAPK8 (MAPK8) | Hill slope (MAPKAPK3) (MAPKAPK3) | ΔTm at 20 µM (MAPK14 [1]; HL-60, living HL-60 cells, 20 µM inhibitor, read-out: ΔTm to DMSO (MAPK14)) [°C] | Tm (MAPK14 [1]; MAPK14, living cells) [°C] | ΔTm to DMSO (MAPK14 [1]; MAPK14, living cells) [°C] | Tm (MAPK14) (MAPK14 [1]; living HL-60 cells, 20 µM inhibitor) | ΔTm to DMSO (MAPK14) (MAPK14 [1]; living HL-60 cells, 20 µM inhibitor, 20 µM) [°C] | pEC50 (NUDT1) | Hill slope (NUDT1) (NUDT1; living HL-60 cells, […] °C, TMT-MS) | thermal stabilization in melting curves (MAPK14) (MAPK14 [2]) |
| --- | --- | --- | --- | --- | --- | --- | --- | --- | --- | --- |
| C[S+]([O-])c1ccc(-c2nc(-c3ccncc3)c(-c3ccc(F)cc3)[nH]2)cc1 (stereo not shown) [SB203580] | inactivity |  |  |  |  |  |  |  |  |  |
| Cn1c(NC[C@@H](N)Cc2ccccc2)nc(-c2ccncc2)c(-c2ccc3ccccc3c2)c1=O [AMG-548] |  | 0.68 | 14.8 | 60.58 | 14.76 | 60.6 ± 0.5 °C and 60.58 °C | 14.76 | 5.64 | 0.77 | thermal stabilizations |
